Patent US4358458A, “Tertiary imidazolyl alcohols and method for the treatment of generalized and local infections caused by fungi and yeasts” (Nordmark-Werke GmbH, priority 1976, dated 1982)

Columns and labels:
Candida albicans [1] = test: series dilution test in vitro, Candida albicans; type: cell-based; settings: dilution b=1:100,000
Method: The antimicrobial activity of the compounds corresponding to general formula (I) in vitro was tested in a series dilution test with dilution ratios of from 1:10,000 to 1:200,000 against the germs Staphylococcus aureus, Trichophyton mentagrophytes and Candida albicans.
The results were evaluated by the following graduations of the growth inhibition level:
.phi.=complete inhibition
The following dilution ratios were selected as the dilution ratio V: […]

Candida albicans [2] = test: oral activity in Candida-infected mice (survival); type: in vivo; settings: 100 mg/kg orally twice a day for 7 days; for Number of Animals surviving on day 1 after infection / Number of Animals surviving on day 2 after infection / Number of Animals surviving on day 3 after infection / Number of Animals surviving on day 4 after infection / Number of Animals surviving on day 5 after infection / Number of Animals surviving on day 6 after infection / Number of Animals surviving on day 7 after infection: groups of 10 mice
Method: In order to determine oral activity, groups of 10 mice weighing approximately 20 g were pretreated for 2 days with intramuscular doses of 50 mg/kg of hydrocortisone in order to obtain firm rooting of the infection. The mice were then each infected intravenously with 500,000 Candida albicans germs and subsequently treated orally twice a day for 7 days with 100 mg/kg of the substance to be tested. In addition to an infected, but untreated control group, another group was treated for comparison with the comparison substance MICONAZOL.

LD50 (mice) = settings: mouse, in vivo

Row | SMILES | growth inhibition level, Candida albicans (Candida albicans [1]) | Number of Animals surviving on day 1 after infection (Candida albicans [2]) | Number of Animals surviving on day 2 after infection (Candida albicans [2]) | Number of Animals surviving on day 3 after infection (Candida albicans [2]) | Number of Animals surviving on day 4 after infection (Candida albicans [2]) | Number of Animals surviving on day 5 after infection (Candida albicans [2]) | Number of Animals surviving on day 6 after infection (Candida albicans [2]) | Number of Animals surviving on day 7 after infection (Candida albicans [2]) | animals still alive on the last day of the treatment (Candida albicans [2]; last day of treatment) | LD50 (LD50 (mice))
1 | OC(Cc1ccc(Cl)cc1)(Cn1ccnc1)c1ccccc1 (stereo not drawn) [Example 28, 1-(4-chlorophenyl)-2-phenyl-3-(imidazol-1-yl)-propan-2-ol nitrate] | + ++ | 10 | 10 | 10 | 10 | 10 | 10 | 10 | – | –
2 | Clc1ccc(COC(Cn2ccnc2)c2ccc(Cl)cc2Cl)c(Cl)c1.O=[N+]([O-])O (stereo not drawn) [MICONAZOL, 1-[2,4-dichloro-β-(2,4-dichlorobenzyloxy)-phenethyl]imidazole nitrate, reference compound] | – | 10 | 10 | 8 | 8 | 6 | 4 | 2 | 20% | –
3 | OC(Cc1ccc(Cl)cc1Cl)(Cn1ccnc1)c1ccc(Cl)cc1Cl (stereo not drawn) [Example 9, 1,2-bis-(2,4-dichlorophenyl)-3-(imidazol-1-yl)-propan-2-ol-nitrate] | – | 10 | 10 | 10 | 10 | 10 | 10 | 9 | – | 1000 mg/kg
4 | OC(Cc1ccc(Cl)cc1Cl)(Cn1ccnc1)c1ccccc1 (stereo not drawn) [Example 34, 1-(2,4-dichlorophenyl)-2-phenyl-3-(imidazol-1-yl)-propan-2-ol nitrate] | – | 10 | 10 | 10 | 10 | 10 | 10 | 9 | – | –
5 | Cl.OC(Cc1ccc(Cl)cc1)(Cn1ccnc1)c1ccc(Cl)cc1Cl (stereo not drawn) [Example 30, 1-(4-chlorophenyl)-2-(2,4-dichlorophenyl)-3-(imidazol-1-yl)-propan-2-ol hy drochloride] | – | 10 | 10 | 10 | 10 | 10 | 10 | 10 | – | 1000 mg/kg
6 | OC(Cc1ccccc1)(Cn1ccnc1)c1ccc(Cl)cc1 (stereo not drawn) [Example 15, 1-phenyl-2-(4-chlorophenyl)-3-(imidazol-1-yl)-propan-2-ol nitrate] | – | 10 | 10 | 10 | 10 | 10 | 10 | 9 | – | –
7 | OC(Cc1ccc(Cl)cc1)(Cn1ccnc1)c1ccc(Cl)cc1 (stereo not drawn) [Example 8, 1,2-bis-(4-chlorophenyl)-3-(imidazol-1-yl)-propan-2-ol nitrate] | – | 10 | 10 | 10 | 10 | 10 | 10 | 10 | – | 1000 mg/kg
